Assay results taken from ChEMBL document CHEMBL1159302, “Symplostatin 3, a new dolastatin 10 analogue from the marine cyanobacterium Symploca sp. VP452” (J Nat Prod, 2002).
Calls of active or inactive are those of the source. The rule behind the calls is not given here. Non-standard residues stand in square brackets, D forms with d. Residues, ends and D or L forms follow the SMILES beside them. *: point of attachment. Dolaproine = CO[C@@H]([C@@H]1CCCN1)[C@@H](C)C(=O)O; Dil = CC[C@H](C)[C@H](NC)[C@@H](CC(=O)O)OC; NMe2Val = CC(C)[C@@H](C(=O)*)N(C)C; PhLac = O=C(O)[C@@H](O)Cc1ccccc1

Legend:
Format in all cases: functional, cell-based
A10 [1] = assay: Induction of cellular microtubule disrupting activity in rat A10 cells at 1 ug/ml after 24 hrs by indirect immunofluorescence technique
A10 [2] = assay: Effect on morphology in rat A10 cells assessed as breakdown of nucleus into micronuclei
A10 [3] = assay: Induction of actin filament disrupting activity in rat A10 cells by rhodamine-phalloidin staining
KB = assay: Cytotoxicity against human KB cells by SRB assay
A10 [4] = assay: Induction of cellular microtubule disrupting activity in rat A10 cells at 0.1 ug/ml after 24 hrs by indirect immunofluorescence technique
LoVo = assay: Cytotoxicity against human LoVo cells by SRB assay

Structure (SMILES): CC[C@H](C)[C@@H]([C@@H](CC(=O)N1CCC[C@H]1[C@H](OC)[C@@H](C)C(=O)O[C@@H](Cc1ccccc1)C(=O)O)OC)N(C)C(=O)[C@@H](NC(=O)[C@H](C(C)C)N(C)C)C(C)C [SYMPLOSTATIN 3] (NMe2Val-V[Dil][Dolaproine][PhLac]-OH)
- Activity (A10 [1]): Active
- Activity (A10 [2]): Active
- Activity (A10 [3]): inactive
- IC50 (KB): 3.9 nM
- Activity (A10 [4]): Active
- IC50 (LoVo): 10.3 nM
